Reference: patent publication US20220009988A1, “PEPTIDE MODULATORS OF THE INTERACTION BETWEEN HUMAN C-PEPTIDE AND HUMAN ELASTIN RECEPTOR FOR THERAPEUTIC USE” (Biotempt B.V., priority 2017, published 2022)
One block for each substance: values may come before it.

What was measured:
[1] = test system: glucose-induced vascular dysfunction; details: cited from earlier work; for potency on vascular dysfunction relative to native C-peptide / prevention of vascular dysfunction (active / inactive): skin chamber granulation tissue model in rats; for normalization (%) of 30 mM glucose-induced vascular dysfunction: rats, FIG. 1 adapted from Ido et al. 1997
[2] = test system: MAP kinase signaling pathways; details: cited from earlier work
[3] = test system: human renal tubular cells; details: cited from earlier work
[4] = test system: cell membrane-bound C-peptide; details: cited from earlier work
[5] = test system: Na^+K^+ATPase; details: rat renal tubule cells; cited from earlier work
[6] = test system: CD4+ immune cells; assay: classical Boyden chamber experiment, migration of CD4+ immune cells; format: cell-based; details: V14-peptide at 1.3 microM; C-peptide at 10 nM
Description: Moreover, additional examples of fragments of the human C-peptide are provided herein and ^14, all bearing a mid-portion hexapeptide 12 SEQ ID NO:34 (LGGGPG) 17, that all prevented vascular dysfunction whereas other human C-peptide fragments, wherein the hexapeptide mid-portion was disrupted, were found not active. […] Human C-peptide and its xGxxPG containing fragments may thus be considered an unexpected species of the genus of a larger class of peptides: elastin peptides capable of elastin receptor activation, whereby excess C-peptide may be meddling with elastin receptor mediated tissue repair, modulating chronic-low grade inflammation, IR and hypertension. […] This provides a substantial jump in our understanding of the causes of metabolic syndrome and other lifestyle- or age-related conditions of IR. […] It is provided to do these tests with synthetic human C-peptide variants or fragments, provided with or without the sequence GxxP, to study binding, including classical elastin receptor antagonist V14 peptide to study inhibition of binding. Similarly, one can do the C-peptide tests in a skin chamber granulation tissue model of vascular function ^14, or test synthetic, inducibly or constitutively expressed C-peptide in established models of atherosclerosis, Neu-1 mediated IR or PPCA mediated hypertension ^7-9.

[7] = test system: bioactivity of C-peptide; assay: preliminary in-vitro inhibition of bioactivity of C-peptide; details: preliminary in-vitro results
[8] = target: human elastin receptor (elastin binding protein, EBP) on CD4+ immune cells (human)

Substance: D--1EAEDLQVGQVELGGGPGAGSLQPLALEGSLQ31 [enantio C-peptide]
potency on vascular dysfunction relative to native C-peptide [1]: equipotent to native C-peptide

Substance: DLQVGQVELGGGPGAGSLQPL [SEQ ID NO:20]
normalization (%) of 30 mM glucose-induced vascular dysfunction [1]: significant normalization

Substance: DLQVGQVELGGGPGAGSLQPLALEGSLQ [SEQ ID NO:10]
normalization (%) of 30 mM glucose-induced vascular dysfunction [1]: significant normalization

Substance: EAEDLQVGQVELGGGPGAGSLQPL (EAEDLQVGQVELGGGPGAGSLQPLAL) [SEQ ID NO:17]
normalization (%) of 30 mM glucose-induced vascular dysfunction [1]: significant normalization

Substance: EAENPQAGAVELGGGLGGLQALALEGPPQ [pig C-peptide]
prevention of vascular dysfunction (active / inactive) [1]: inactive

Substance: EGSLQ [SEQ ID NO:6]
MAP kinase signaling pathways [2]: stimulates
intracellular Ca2+ [3]: may induce intracellular Ca2+ increases
displacement of cell membrane-bound C-peptide [4]: displaces

Substance: ELGGGPGAG [SEQ ID NO:9]
Na^+K^+ATPase activity [5]: stimulate

Substance: ELGGGPGAGSLQPL [SEQ ID NO:176]
normalization (%) of 30 mM glucose-induced vascular dysfunction [1]: significant normalization

Substance: EVARQ [SEQ ID NO:7]
intracellular Ca2+ [3]: may induce intracellular Ca2+ increases

Substance: EVEDPQVPQLELGGGPEAGDLQTLALEVARQ [Rat C-peptide]
prevention of vascular dysfunction (active / inactive) [1]: active

Substance: GGGPGAG [SEQ ID NO:8]
normalization (%) of 30 mM glucose-induced vascular dysfunction [1]: normalize

Substance: GQVELGGGPGAGSLQPLALEGSLQ [SEQ ID NO:13]
normalization (%) of 30 mM glucose-induced vascular dysfunction [1]: significant normalization

Substance: LGGGPGAGSLQPLALEGSLQ [SEQ ID NO:14]
normalization (%) of 30 mM glucose-induced vascular dysfunction [1]: significant normalization

Substance: QLSGELALPQLSGAGPGGGLEVQGVQLDEAE (retro C-peptide)
potency on vascular dysfunction relative to native C-peptide [1]: equipotent to native C-peptide

Substance: VGQVELGGGPGAGSLQPL [SEQ ID NO:175]
normalization (%) of 30 mM glucose-induced vascular dysfunction [1]: significant normalization

Substance: VVGSPSAQDEASPL [V14-peptide]
C-peptide-induced CD4-migration inhibited, antagonized and diminished [6]: > 50%
inhibition of bioactivity of C-peptide [7]: inhibition

migration of CD4+ immune cells in a classical Boyden chamber experiment (% increase of migration) [8]: 100
Substance: human C-peptide
